Measurements from patent US9604933B2, “Pyrazolochalcones as potential anticancer agents” (COUNCIL OF SCIENTIFIC AND INDUSTRIAL RESEARCH, priority 2013, dated 2017).

Tests used:
CCRF-CEM = experiment: NCI SRB cytotoxicity, leukemia CCRF-CEM; assay type: cell-based; conditions: Homo sapiens, 48 h exposure
Protocol: (§1) The pyrazolochalcones (7e, 8e, 10e, 11e, 12e, 13e and 8f) have been tested against fifty nine human tumor cell lines derived from nine cancer types (leukemia, non-small cell lung cancer, colon cancer, CNS cancer, melanoma, ovarian cancer, renal cancer, prostate cancer and breast cancer) as per the NCI protocol. For each compound, dose response curves for individual cell lines have been measured at a minimum of five concentrations at 10 fold dilutions. A protocol of 48 h continuous drug exposure has been used, and a sulforhodamine B (SRB) protein assay has been used to estimate cell viability or growth. The concentration for 50% cell growth inhibition (GI50), 50% cell death (LC50, 50% growth) and total cell growth inhibition (TGI, 0% growth) values were tabulated (Table-1). DMSO was used as control to calculate the values of GI50, LC50 and TGI. The compounds 7e, 8e, 10e, 11e, 12e, 13e and 8f has been evaluated for their in vitro cytotoxicity in […] cell lines from nine human cancer types of leukemia (K-562, SR), non-small cell lung (Hop-62, NCI-H226, NCI-H522), colon (HCT-116, HCT-15, HCC-2998), CNS (SF-539), melanoma (SK-MEL-5, UACC-62, M14), ovarian (IGROV1), renal (A498), prostate (PC3) and breast (BT-549, MDA-MB-435, HS578T) origin. The results are expressed as percent of cell growth determined relative to that of untreated control cells (Table 2).

HL-60(TB) = experiment: NCI SRB cytotoxicity, leukemia HL-60(TB); assay type: cell-based; conditions: Homo sapiens, 48 h exposure
Protocol: as §1

MOLT-4 = experiment: NCI SRB cytotoxicity, leukemia MOLT-4; assay type: cell-based; conditions: Homo sapiens, 48 h exposure
Protocol: as §1

A549/ATCC = experiment: NCI SRB cytotoxicity, non-small cell lung A549/ATCC; assay type: cell-based; conditions: Homo sapiens, 48 h exposure
Protocol: as §1

NCI-H226 = experiment: NCI SRB cytotoxicity, non-small cell lung NCI-H226; assay type: cell-based; conditions: Homo sapiens, 48 h exposure
Protocol: as §1

NCIH322M = experiment: NCI SRB cytotoxicity, non-small cell lung NCIH322M; assay type: cell-based; conditions: Homo sapiens, NCI-H322M, 48 h exposure
Protocol: as §1

NCI-H522 = experiment: NCI SRB cytotoxicity, non-small cell lung NCI-H522; assay type: cell-based; conditions: Homo sapiens, 48 h exposure
Protocol: as §1

COLO-205 = experiment: NCI SRB cytotoxicity, colon COLO-205; assay type: cell-based; conditions: Homo sapiens, 48 h exposure
Protocol: as §1

HCT-116 = experiment: NCI SRB cytotoxicity, colon HCT-116; assay type: cell-based; conditions: Homo sapiens, 48 h exposure
Protocol: as §1

HT29 = experiment: NCI SRB cytotoxicity, colon HT29; assay type: cell-based; conditions: Homo sapiens, HT-29, 48 h exposure
Protocol: as §1

SW-620 = experiment: NCI SRB cytotoxicity, colon SW-620; assay type: cell-based; conditions: Homo sapiens, 48 h exposure
Protocol: as §1

SF-268 = experiment: NCI SRB cytotoxicity, CNS SF-268; assay type: cell-based; conditions: Homo sapiens, 48 h exposure
Protocol: as §1

SF-539 = experiment: NCI SRB cytotoxicity, CNS SF-539; assay type: cell-based; conditions: Homo sapiens, 48 h exposure
Protocol: as §1

SNB-19 = experiment: NCI SRB cytotoxicity, CNS SNB-19; assay type: cell-based; conditions: Homo sapiens, 48 h exposure
Protocol: as §1

LOX IMVI = experiment: NCI SRB cytotoxicity, melanoma LOX IMVI; assay type: cell-based; conditions: Homo sapiens, 48 h exposure
Protocol: as §1

MALME-3M = experiment: NCI SRB cytotoxicity, melanoma MALME-3M; assay type: cell-based; conditions: Homo sapiens, 48 h exposure
Protocol: as §1

M14 = experiment: NCI SRB cytotoxicity, melanoma M14; assay type: cell-based; conditions: Homo sapiens, 48 h exposure
Protocol: as §1

SK-MEL-28 = experiment: NCI SRB cytotoxicity, melanoma SK-MEL-28; assay type: cell-based; conditions: Homo sapiens, 48 h exposure
Protocol: as §1

SK-MEL-5 = experiment: NCI SRB cytotoxicity, melanoma SK-MEL-5; assay type: cell-based; conditions: Homo sapiens, 48 h exposure
Protocol: as §1

UACC-62 = experiment: NCI SRB cytotoxicity, melanoma UACC-62; assay type: cell-based; conditions: Homo sapiens, 48 h exposure
Protocol: as §1

OVCAR-3 = experiment: NCI SRB cytotoxicity, ovarian OVCAR-3; assay type: cell-based; conditions: Homo sapiens, 48 h exposure
Protocol: as §1

NCI/ADR-RES = experiment: NCI SRB cytotoxicity, ovarian NCI/ADR-RES; assay type: cell-based; conditions: Homo sapiens, 48 h exposure
Protocol: as §1

A498 = experiment: NCI SRB cytotoxicity, renal A498; assay type: cell-based; conditions: Homo sapiens, 48 h exposure
Protocol: as §1

ACHN = experiment: NCI SRB cytotoxicity, renal ACHN; assay type: cell-based; conditions: Homo sapiens, 48 h exposure
Protocol: as §1

CAKI-1 = experiment: NCI SRB cytotoxicity, renal CAKI-1; assay type: cell-based; conditions: Homo sapiens, 48 h exposure
Protocol: as §1

RXF 393 = experiment: NCI SRB cytotoxicity, renal RXF 393; assay type: cell-based; conditions: Homo sapiens, 48 h exposure
Protocol: as §1

SN12C = experiment: NCI SRB cytotoxicity, renal SN12C; assay type: cell-based; conditions: Homo sapiens, 48 h exposure
Protocol: as §1

TK-10 = experiment: NCI SRB cytotoxicity, renal TK-10; assay type: cell-based; conditions: Homo sapiens, 48 h exposure
Protocol: as §1

UO-31 = experiment: NCI SRB cytotoxicity, renal UO-31; assay type: cell-based; conditions: Homo sapiens, 48 h exposure
Protocol: as §1

PC-3 = experiment: NCI SRB cytotoxicity, prostate PC-3; assay type: cell-based; conditions: Homo sapiens, 48 h exposure
Protocol: as §1

BT-549 = experiment: NCI SRB cytotoxicity, breast BT-549; assay type: cell-based; conditions: Homo sapiens, 48 h exposure
Protocol: as §1

T-47D = experiment: NCI SRB cytotoxicity, breast T-47D; assay type: cell-based; conditions: Homo sapiens, T47D, 48 h exposure
Protocol: as §1

Leukemia = experiment: NCI SRB cytotoxicity, leukemia panel average; assay type: cell-based, human; conditions: average of cell lines
Protocol: as §1
(§2) Each cancer type represents the average of six to eight different cancer cell lines.

Colon = experiment: NCI SRB cytotoxicity, colon panel average; assay type: cell-based, human; conditions: average of cell lines
Protocol: as §1, §2

CNS = experiment: NCI SRB cytotoxicity, CNS panel average; assay type: cell-based, human; conditions: average of cell lines
Protocol: as §1, §2

Melanoma = experiment: NCI SRB cytotoxicity, melanoma panel average; assay type: cell-based, human; conditions: average of cell lines
Protocol: as §1, §2

Ovarian = experiment: NCI SRB cytotoxicity, ovarian panel average; assay type: cell-based, human; conditions: average of cell lines
Protocol: as §1, §2

Prostate = experiment: NCI SRB cytotoxicity, prostate panel average; assay type: cell-based, human; conditions: average of cell lines
Protocol: as §1, §2

Breast = experiment: NCI SRB cytotoxicity, breast panel average; assay type: cell-based, human; conditions: average of cell lines
Protocol: as §1, §2

[1] = Homo sapiens, read-out: Log10 GI50 (concentration in mol/L causing 50% growth inhibition) (converted)
[2] = Homo sapiens, read-out: Log10 LC50 (concentration in mol/L causing 50% cell death) (converted)

Question: How did the GI50 (CCRF-CEM) turn out when `COc1cc(C(=O)/C=C/c2cc(-c3cc(OC)c(OC)c(OC)c3)n[nH]2)cc(OC)c1OC` [10e, (E)-1-(3,4,5-trimethoxyphenyl)-3-(3-(3,4,5-trimethoxyphenyl)-1H-pyrazol-5-yl)prop-2-en-1-one] was run?
Answer: The GI50 was 1.68 µM.

Question: What about the GI50 (HL-60(TB)) of the same compound?
Answer: Its GI50 is 1.93 µM.

Question: And the GI50 (MOLT-4)?
Answer: Its GI50 is 2.32 µM.

Question: And the GI50 (A549/ATCC)?
Answer: The GI50 was 2.72 µM.

Question: What about the GI50 (NCI-H226) of the same compound?
Answer: Its GI50 is 1.6 µM.

Question: What about the GI50 (NCIH322M) of the same compound?
Answer: The GI50 was 2 µM.

Question: And the GI50 (NCI-H522)?
Answer: Its GI50 is 0.52 µM.

Question: What about the GI50 (COLO-205) of the same compound?
Answer: Its GI50 is 1.75 µM.

Question: What about the GI50 (HCT-116) of the same compound?
Answer: The GI50 was 1.31 µM.

Question: And the GI50 (HT29)?
Answer: The GI50 was 1.79 µM.

Question: What about the GI50 (SW-620) of the same compound?
Answer: Its GI50 is 1.59 µM.

Question: And the GI50 (SF-268)?
Answer: The GI50 was 1.94 µM.

Question: What about the GI50 (SF-539) of the same compound?
Answer: The GI50 was 1.29 µM.

Question: What about the GI50 (SNB-19) of the same compound?
Answer: Its GI50 is 1.66 µM.

Question: What about the GI50 (LOX IMVI) of the same compound?
Answer: The GI50 was 1.52 µM.

Question: What about the GI50 (MALME-3M) of the same compound?
Answer: The GI50 was 1.86 µM.

Question: And the GI50 (M14)?
Answer: The GI50 was 1.79 µM.

Question: What about the GI50 (SK-MEL-28) of the same compound?
Answer: Its GI50 is 1.82 µM.

Question: What about the GI50 (SK-MEL-5) of the same compound?
Answer: Its GI50 is 1.57 µM.

Question: What about the GI50 (UACC-62) of the same compound?
Answer: Its GI50 is 1.78 µM.

Question: What about the GI50 (OVCAR-3) of the same compound?
Answer: The GI50 was 1.75 µM.

Question: What about the GI50 (NCI/ADR-RES) of the same compound?
Answer: The GI50 was 3.47 µM.

Question: And the GI50 (A498)?
Answer: Its GI50 is 1.61 µM.

Question: What about the GI50 (ACHN) of the same compound?
Answer: Its GI50 is 1.62 µM.

Question: And the GI50 (CAKI-1)?
Answer: The GI50 was 2.58 µM.

Question: What about the GI50 (RXF 393) of the same compound?
Answer: The GI50 was 1.26 µM.

Question: And the GI50 (SN12C)?
Answer: The GI50 was 1.47 µM.

Question: And the GI50 (TK-10)?
Answer: The GI50 was 1.46 µM.

Question: And the GI50 (UO-31)?
Answer: Its GI50 is 1.19 µM.

Question: What about the GI50 (PC-3) of the same compound?
Answer: Its GI50 is 1.47 µM.

Question: What about the GI50 (BT-549) of the same compound?
Answer: The GI50 was 1.57 µM.

Question: And the GI50 (T-47D)?
Answer: Its GI50 is 1.13 µM.

Question: What about the GI50 (Leukemia; [1]) of the same compound?
Answer: The GI50 was 1.2 µM.

Question: What about the CC50 (Leukemia; [2]) of the same compound?
Answer: Its CC50 is 0.0001 mol/L.

Question: What about the “Log10 TGI (concentration in mol/L causing total growth inhibition (0% growth))” value (Leukemia) of the same compound?
Answer: The value was −4.80 mol/L.

Question: What about the GI50 (Colon; [1]) of the same compound?
Answer: The GI50 was 1.62 µM.

Question: And the LC50 (Colon; [2])?
Answer: Its LC50 is 6.03 µM.

Question: What about the “Log10 TGI (concentration in mol/L causing total growth inhibition)” value (Colon) of the same compound?
Answer: The value was −5.50 mol/L.

Question: What about the GI50 (CNS; [1]) of the same compound?
Answer: Its GI50 is 1.62 µM.

Question: And the LC50 (CNS; [2])?
Answer: The LC50 was 7.94 µM.

Question: What about the “Log10 TGI (concentration in mol/L causing total growth inhibition (0% growth))” value (CNS) of the same compound?
Answer: Its value is −5.46 mol/L.

Question: What about the GI50 (Melanoma; [1]) of the same compound?
Answer: Its GI50 is 1.7 µM.

Question: And the LC50 (Melanoma; [2])?
Answer: Its LC50 is 6.46 µM.

Question: What about the “Log10 TGI (concentration in mol/L causing total growth inhibition)” value (Melanoma) of the same compound?
Answer: The value was −5.47 mol/L.

Question: What about the GI50 (Ovarian; [1]) of the same compound?
Answer: Its GI50 is 2.19 µM.

Question: What about the CC50 (Ovarian; [2]) of the same compound?
Answer: Its CC50 is 14.5 µM.

Question: And the “Log10 TGI (concentration in mol/L causing total growth inhibition (0% growth))” value (Ovarian)?
Answer: The value was −5.23 mol/L.

Question: And the GI50 (Prostate; [1])?
Answer: Its GI50 is 1.48 µM.

Question: And the CC50 (Prostate; [2])?
Answer: Its CC50 is 7.41 µM.

Question: And the “Log10 TGI (concentration in mol/L causing total growth inhibition (0% growth))” value (Prostate)?
Answer: The value was −5.48 mol/L.

Question: What about the GI50 (Breast; [1]) of the same compound?
Answer: The GI50 was 1.35 µM.

Question: And the CC50 (Breast; [2])?
Answer: Its CC50 is 10 µM.

Question: And the “Log10 TGI (concentration in mol/L causing total growth inhibition (0% growth))” value (Breast)?
Answer: Its value is −5.35 mol/L.
